System: parental BW5147.G.1.4 cells
Experiment: MTX sensitivity (growth cut off) of the parental cell line
Type: cell-based
Experimental: The parental (i e., non-transfected) BW5147.G.1.4 cells barely grow in the presence of 10 nM MTX. By visual inspection 3 to 5 days after plating, greater than about 98 percent of the parental BW5147.G.1.4 cells are killed when 1×10^4 cells are placed in 2 ml of medium containing 20 nM MTX in the well of a 24 well plate (this level of MTX is referred to as the growth cut off for the parental BW5147.G.1.4 cell line). At 30 nM MTX, colonies of BW5147.G.1.4 cells are seen at a frequency of less than 10^−7.
The transfected and selected cells (“selectants”) are plated in a range of MTX concentrations ranging from 10 to 100 nM; the cells are plated at a density of 1 to 5×10^4 cells per well in a 24 well plate (Costar); the selectants are plated at the same density of cells as was used to determine the level of MTX at which > about 98% of the parental cells were killed. This is done because MTX irreversibly binds to DHFR so that the number of cells present in a given volume effects the concentration of MTX required to kill the cells; that is if a higher density of cell is used, a higher concentration of MTX will be required to kill about 98% of the cells [For example when the parental cells are plated at a density of 1×10^4 cells/2 ml medium in the well of a 24 well plate 20 nM MTX is sufficient to kill >98% cells in a 3 to 5 day assay. If the density is increased two-fold (1×10^4 cells in ml medium), 25 nM MTX is required for >98% killing. If 5×10^4 cells are placed in 2 ml of medium in the well of a 24 well plate, 30 nM MTX is required to achieve >98% killing.]
Eight selectant clones having the highest levels of expression of DR were chosen for further manipulation. These eight selectant clones were then tested for their sensitivity to MTX. Each clone was plated at a density of 2×10^4 cells/well in a 24 well plate. Each well contained 1 ml of medium containing RPMI-1640, 10% dialyzed FCS and MTX. The clones were grown in the presence of either 3, 10, 30, 60 or 90 nM MTX. Non-transfected BW5147.G.1.4 cells were also grown in the above range of MTX as a control. Clones which grew in MTX levels at least 2–3 fold higher than that tolerated by the parental BW5147.G.1.4 (typically less than or equal to 10 nM MTX) were selected for further analysis. Four of the selectant clones grew in greater than or equal to 30 nM MTX and were retained; these clones are the primary transfectants chosen for amplification. All 4 clones which grew in >30 nM MTX were analyzed for the ability to express DR molecules on the surface by an ELISA. The cell surface ELISA was performed as follows.

## CN(Cc1cnc2nc(N)nc(N)c2n1)c1ccc(C(=O)N[C@@H](CCC(=O)O)C(=O)O)cc1 [MTX, methotrexate]
10 nM MTX
  growth of parental cells in the presence of MTX: barely grow
20 nM MTX, 1×10^4 cells in 2 ml medium, well of a 24 well plate, visual inspection 3 to 5 days after plating
  parental BW5147.G.1.4 cells killed: greater than 98%
30 nM MTX
  frequency of colonies of BW5147.G.1.4 cells: less than 10^−7
1×10^4 cells/2 ml medium, 24 well plate, 3 to 5 day assay
  MTX concentration sufficient to kill >98% of parental cells: 20 nM
2×10^4 cells/well in 1 ml, 24 well plate, RPMI-1640 with 10% dialyzed FCS
  MTX level tolerated by parental BW5147.G.1.4: less than or equal to 10 nM
5×10^4 cells in 2 ml medium, 24 well plate
  MTX concentration required for >98% killing of parental cells: 30 nM
Density increased two-fold (1×10^4 cells in ml medium)
  MTX concentration required for >98% killing of parental cells: 25 nM

Reference: patent US7208146B2, “Methods of treating lymphoma and leukemia” (Genitope Corporation, priority 1996, dated 2007)
